Results taken from paper PMC11864979, “First-in-class ultralong-target-residence-time p38α inhibitors as a mitosis-targeted therapy for colorectal cancer” (Nature Cancer, 2025).
Read-outs that look alike come from different tables or passages of the source.

Experiments:
Experiment in all cases: selectivity profiling in a panel of 340 wild-type kinases (Reaction Biology Europe)
Format in all cases: binding
[1] = molecular target: T1, 340 wild-type kinases (Homo sapiens, UniProt P35968)
T1 construct: purchased Reaction Biology Europe

[2] = molecular target: T2, 340 wild-type kinases (Homo sapiens, UniProt P36894)
T2 construct: purchased Reaction Biology Europe
T2 sequence (P36894 24-532): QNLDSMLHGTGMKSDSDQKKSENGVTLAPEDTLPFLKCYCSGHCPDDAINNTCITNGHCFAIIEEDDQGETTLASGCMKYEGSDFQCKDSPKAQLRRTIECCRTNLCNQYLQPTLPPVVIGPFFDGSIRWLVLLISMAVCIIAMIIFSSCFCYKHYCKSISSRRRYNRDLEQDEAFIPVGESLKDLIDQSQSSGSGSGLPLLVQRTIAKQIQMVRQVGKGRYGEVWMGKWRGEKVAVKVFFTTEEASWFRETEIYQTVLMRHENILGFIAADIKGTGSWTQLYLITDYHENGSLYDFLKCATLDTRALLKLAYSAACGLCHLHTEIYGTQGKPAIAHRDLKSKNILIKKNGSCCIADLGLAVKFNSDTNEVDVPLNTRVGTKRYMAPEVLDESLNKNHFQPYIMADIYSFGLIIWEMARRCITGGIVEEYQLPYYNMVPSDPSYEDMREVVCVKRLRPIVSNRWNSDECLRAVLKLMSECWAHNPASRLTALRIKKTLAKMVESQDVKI

[3] = molecular target: T3, 340 wild-type kinases (Homo sapiens, UniProt P42684)
T3 construct: purchased Reaction Biology Europe
T3 sequence (P42684 whole entry): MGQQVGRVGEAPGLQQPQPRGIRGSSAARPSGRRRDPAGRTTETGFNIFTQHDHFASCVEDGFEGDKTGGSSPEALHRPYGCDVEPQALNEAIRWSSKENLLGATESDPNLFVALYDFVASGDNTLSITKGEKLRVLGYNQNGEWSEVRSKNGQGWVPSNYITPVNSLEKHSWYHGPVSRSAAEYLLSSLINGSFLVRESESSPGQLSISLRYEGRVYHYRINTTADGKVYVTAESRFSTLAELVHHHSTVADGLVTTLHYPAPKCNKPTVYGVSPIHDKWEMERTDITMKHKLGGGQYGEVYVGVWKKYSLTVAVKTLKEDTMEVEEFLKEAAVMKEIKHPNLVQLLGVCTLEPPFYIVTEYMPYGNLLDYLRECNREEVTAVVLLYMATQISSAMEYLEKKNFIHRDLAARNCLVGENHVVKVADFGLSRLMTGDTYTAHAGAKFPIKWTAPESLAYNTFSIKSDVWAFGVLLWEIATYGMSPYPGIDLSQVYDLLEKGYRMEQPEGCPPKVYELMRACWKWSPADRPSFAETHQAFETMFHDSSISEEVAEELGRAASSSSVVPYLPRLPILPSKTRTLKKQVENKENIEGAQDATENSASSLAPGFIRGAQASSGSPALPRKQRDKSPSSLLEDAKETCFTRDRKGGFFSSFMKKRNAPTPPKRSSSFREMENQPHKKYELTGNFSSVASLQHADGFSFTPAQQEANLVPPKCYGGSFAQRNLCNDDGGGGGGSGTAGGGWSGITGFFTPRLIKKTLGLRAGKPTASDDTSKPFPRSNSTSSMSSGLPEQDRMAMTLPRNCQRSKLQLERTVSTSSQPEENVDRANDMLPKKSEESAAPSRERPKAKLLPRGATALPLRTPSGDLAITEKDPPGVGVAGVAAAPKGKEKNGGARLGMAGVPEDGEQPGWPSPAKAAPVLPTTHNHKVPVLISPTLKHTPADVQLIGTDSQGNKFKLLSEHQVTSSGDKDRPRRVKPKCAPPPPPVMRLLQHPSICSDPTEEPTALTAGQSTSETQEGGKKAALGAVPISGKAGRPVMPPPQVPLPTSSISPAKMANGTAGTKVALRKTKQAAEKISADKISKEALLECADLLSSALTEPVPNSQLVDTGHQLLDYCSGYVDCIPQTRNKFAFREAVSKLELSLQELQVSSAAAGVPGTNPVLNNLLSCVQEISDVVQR

[4] = molecular target: T4, 340 wild-type kinases (Homo sapiens, UniProt Q12851)
T4 construct: purchased Reaction Biology Europe
T4 sequence (Q12851 1-820): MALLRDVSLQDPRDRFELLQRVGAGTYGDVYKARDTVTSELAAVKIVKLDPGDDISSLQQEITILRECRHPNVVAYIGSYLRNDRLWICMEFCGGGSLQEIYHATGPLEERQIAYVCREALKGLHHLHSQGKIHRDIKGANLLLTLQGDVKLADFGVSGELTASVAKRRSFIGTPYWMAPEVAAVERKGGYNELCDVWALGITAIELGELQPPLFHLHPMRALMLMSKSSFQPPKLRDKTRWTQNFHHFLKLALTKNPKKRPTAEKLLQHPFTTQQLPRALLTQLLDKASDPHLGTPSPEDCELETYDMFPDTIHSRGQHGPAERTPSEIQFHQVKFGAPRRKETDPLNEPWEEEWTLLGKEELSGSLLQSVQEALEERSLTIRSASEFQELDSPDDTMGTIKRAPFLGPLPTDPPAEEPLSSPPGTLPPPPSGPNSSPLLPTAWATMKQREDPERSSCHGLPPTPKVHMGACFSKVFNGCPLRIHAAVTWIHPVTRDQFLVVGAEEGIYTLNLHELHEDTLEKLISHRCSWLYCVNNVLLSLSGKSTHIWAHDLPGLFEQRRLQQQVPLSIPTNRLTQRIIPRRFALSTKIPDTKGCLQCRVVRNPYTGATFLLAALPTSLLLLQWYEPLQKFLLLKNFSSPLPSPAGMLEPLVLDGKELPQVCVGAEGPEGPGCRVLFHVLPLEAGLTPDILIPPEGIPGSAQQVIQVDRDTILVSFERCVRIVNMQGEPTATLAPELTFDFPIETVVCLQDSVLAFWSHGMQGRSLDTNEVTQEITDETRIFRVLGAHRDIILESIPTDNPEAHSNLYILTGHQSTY

[5] = molecular target: T5, 340 wild-type kinases (Homo sapiens, UniProt Q14680)
T5 construct: purchased Reaction Biology Europe

[6] = molecular target: T6, 340 wild-type kinases (Homo sapiens, UniProt Q8IZL9)
T6 construct: purchased Reaction Biology Europe
T6 sequence (Q8IZL9 whole entry): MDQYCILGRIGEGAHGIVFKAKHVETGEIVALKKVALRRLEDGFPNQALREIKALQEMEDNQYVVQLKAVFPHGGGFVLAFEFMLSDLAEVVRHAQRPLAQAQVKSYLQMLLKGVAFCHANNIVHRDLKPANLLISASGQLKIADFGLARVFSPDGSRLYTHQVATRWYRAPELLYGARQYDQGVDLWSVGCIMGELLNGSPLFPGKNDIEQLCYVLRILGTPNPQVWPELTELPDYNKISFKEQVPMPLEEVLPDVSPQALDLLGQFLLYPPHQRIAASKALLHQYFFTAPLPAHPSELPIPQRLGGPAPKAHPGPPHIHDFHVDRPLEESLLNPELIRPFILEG

[7] = molecular target: T7, 340 wild-type kinases (Homo sapiens, UniProt Q9H2G2)
T7 construct: purchased Reaction Biology Europe

[8] = molecular target: T8, 340 wild-type kinases (Homo sapiens, UniProt Q9H2K8)
T8 construct: purchased Reaction Biology Europe
T8 sequence (Q9H2K8 1-898): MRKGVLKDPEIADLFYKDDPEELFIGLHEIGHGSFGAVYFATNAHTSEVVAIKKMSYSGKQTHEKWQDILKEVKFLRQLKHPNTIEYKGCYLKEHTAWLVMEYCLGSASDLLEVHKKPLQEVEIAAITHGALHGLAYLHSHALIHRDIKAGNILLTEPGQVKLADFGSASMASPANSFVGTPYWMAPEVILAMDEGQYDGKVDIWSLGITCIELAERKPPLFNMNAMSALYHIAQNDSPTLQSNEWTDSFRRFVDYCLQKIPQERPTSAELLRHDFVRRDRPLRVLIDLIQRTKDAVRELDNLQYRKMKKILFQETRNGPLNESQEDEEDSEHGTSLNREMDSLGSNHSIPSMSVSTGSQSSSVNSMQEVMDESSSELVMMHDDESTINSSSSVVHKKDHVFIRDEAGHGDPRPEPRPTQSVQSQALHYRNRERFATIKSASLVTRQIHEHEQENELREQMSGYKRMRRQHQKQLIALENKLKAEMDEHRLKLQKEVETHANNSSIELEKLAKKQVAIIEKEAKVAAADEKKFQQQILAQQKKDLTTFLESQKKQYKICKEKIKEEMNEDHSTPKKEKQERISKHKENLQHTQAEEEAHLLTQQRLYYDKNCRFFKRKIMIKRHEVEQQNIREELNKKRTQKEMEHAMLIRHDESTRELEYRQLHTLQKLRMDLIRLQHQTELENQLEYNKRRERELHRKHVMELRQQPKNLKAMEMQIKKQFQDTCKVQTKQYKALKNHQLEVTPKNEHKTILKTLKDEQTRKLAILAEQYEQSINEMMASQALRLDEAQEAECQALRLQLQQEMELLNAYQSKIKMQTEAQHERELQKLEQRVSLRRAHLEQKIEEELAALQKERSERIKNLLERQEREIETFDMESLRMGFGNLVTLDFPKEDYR

[9] = molecular target: T9, 340 wild-type kinases (Homo sapiens, UniProt Q9UBS0)
T9 construct: purchased Reaction Biology Europe
T9 sequence (Q9UBS0 whole entry): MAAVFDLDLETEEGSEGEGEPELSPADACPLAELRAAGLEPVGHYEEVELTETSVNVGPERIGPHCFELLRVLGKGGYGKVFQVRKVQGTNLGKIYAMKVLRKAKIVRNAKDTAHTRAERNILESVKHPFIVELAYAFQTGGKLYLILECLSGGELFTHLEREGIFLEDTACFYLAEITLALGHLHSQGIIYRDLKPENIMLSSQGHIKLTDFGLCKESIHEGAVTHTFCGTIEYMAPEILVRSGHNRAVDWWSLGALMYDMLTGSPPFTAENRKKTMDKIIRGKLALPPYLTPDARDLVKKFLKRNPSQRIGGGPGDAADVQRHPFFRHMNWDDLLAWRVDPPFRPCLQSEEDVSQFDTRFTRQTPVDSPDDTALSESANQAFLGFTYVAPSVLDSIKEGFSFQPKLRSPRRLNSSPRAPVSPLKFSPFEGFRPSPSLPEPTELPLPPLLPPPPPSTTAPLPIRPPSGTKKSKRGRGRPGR

[10] = molecular target: T10, 340 wild-type kinases (Homo sapiens, UniProt Q9Y3S1)
T10 construct: purchased Reaction Biology Europe
T10 sequence (Q9Y3S1 whole entry): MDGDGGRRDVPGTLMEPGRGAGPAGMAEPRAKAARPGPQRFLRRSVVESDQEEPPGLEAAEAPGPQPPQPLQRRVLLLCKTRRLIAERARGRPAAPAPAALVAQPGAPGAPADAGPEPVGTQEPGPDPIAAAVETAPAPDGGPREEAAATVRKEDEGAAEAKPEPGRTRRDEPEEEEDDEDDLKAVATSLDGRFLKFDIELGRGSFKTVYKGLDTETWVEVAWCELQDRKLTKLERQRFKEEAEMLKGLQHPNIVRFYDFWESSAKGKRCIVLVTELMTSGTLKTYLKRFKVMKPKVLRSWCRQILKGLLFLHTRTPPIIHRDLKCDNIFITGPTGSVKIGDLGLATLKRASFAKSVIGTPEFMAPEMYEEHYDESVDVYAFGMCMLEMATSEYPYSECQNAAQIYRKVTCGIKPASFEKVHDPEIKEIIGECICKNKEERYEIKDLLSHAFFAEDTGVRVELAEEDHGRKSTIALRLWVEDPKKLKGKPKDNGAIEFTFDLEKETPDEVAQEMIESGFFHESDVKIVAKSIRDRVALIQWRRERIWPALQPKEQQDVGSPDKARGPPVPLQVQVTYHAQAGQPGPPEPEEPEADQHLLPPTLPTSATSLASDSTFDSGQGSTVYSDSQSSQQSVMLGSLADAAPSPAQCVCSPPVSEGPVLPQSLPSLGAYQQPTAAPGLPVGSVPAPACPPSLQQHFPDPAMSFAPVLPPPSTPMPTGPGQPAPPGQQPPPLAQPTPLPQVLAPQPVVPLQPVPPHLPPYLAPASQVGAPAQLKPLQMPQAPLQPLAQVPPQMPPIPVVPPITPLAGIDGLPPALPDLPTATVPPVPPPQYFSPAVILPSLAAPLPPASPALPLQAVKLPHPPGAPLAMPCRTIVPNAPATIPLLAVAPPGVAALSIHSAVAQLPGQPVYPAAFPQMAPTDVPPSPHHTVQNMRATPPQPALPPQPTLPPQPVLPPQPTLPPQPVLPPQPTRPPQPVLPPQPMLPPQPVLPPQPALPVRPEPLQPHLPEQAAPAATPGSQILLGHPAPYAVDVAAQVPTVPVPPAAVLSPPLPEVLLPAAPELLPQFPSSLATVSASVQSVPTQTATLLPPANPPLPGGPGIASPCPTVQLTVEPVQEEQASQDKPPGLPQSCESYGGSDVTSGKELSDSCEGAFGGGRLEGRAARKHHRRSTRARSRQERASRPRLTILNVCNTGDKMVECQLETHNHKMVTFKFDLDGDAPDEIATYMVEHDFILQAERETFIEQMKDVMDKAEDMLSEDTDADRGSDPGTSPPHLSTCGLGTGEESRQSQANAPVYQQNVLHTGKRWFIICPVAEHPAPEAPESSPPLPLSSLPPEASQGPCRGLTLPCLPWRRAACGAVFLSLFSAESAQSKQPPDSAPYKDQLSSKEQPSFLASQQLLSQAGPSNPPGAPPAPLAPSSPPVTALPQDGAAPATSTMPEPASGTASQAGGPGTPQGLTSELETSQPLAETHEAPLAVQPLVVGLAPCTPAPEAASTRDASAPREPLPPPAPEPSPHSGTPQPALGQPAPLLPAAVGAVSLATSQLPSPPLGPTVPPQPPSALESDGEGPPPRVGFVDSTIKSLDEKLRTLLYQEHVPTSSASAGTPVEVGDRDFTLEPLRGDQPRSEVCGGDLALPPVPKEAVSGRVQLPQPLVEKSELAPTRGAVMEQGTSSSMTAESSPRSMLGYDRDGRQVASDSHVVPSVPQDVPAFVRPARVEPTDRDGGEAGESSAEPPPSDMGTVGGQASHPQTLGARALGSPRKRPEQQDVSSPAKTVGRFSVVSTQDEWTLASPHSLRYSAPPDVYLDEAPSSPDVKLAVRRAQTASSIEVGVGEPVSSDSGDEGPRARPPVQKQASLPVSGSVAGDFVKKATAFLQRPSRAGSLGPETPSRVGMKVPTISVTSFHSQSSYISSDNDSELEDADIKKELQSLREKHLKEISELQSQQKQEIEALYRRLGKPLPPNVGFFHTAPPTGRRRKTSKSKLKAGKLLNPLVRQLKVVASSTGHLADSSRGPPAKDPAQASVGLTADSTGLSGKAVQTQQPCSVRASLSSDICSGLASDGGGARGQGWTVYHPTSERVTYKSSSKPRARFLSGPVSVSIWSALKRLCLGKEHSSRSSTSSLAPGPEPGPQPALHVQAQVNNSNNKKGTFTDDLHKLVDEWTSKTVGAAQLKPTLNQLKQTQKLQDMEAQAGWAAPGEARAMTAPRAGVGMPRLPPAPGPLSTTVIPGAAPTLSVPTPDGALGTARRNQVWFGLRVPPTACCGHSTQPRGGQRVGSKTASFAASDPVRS

`CNC(=O)c1ccc2c(c1)C(=O)c1ccc(Nc3ccc(F)c(NC(=O)C4CC4)c3)cc1CC2` [Compound 2015] was tested, and the remaining activity at 0.2 µM ([1]; 0.2 µM 2015, read-out: VEGFR2 residual activity) was 86.7%, the remaining activity at 1 µM ([1]; 1 µM 2015, read-out: VEGFR2 residual activity) was 96.7% and the remaining activity at 0.2 µM ([1]; VEGFR2, 0.2 µM, read-out: residual activity) was 86.7%. The remaining activity at 1 µM ([1]; VEGFR2, 1 µM, read-out: residual activity) was 96.7%, the remaining activity at 0.2 µM ([2]; 0.2 µM 2015, read-out: BMPR1A residual activity) was 95.6% and the remaining activity at 1 µM ([2]; 1 µM 2015, read-out: BMPR1A residual activity) was 98.5%. For the same compound, the remaining activity at 0.2 µM ([2]; BMPR1A, 0.2 µM, read-out: residual activity) was 95.6%, the remaining activity at 1 µM ([2]; BMPR1A, 1 µM, read-out: residual activity) was 98.5% and the remaining activity at 0.2 µM ([3]; 0.2 µM 2015, read-out: ABL2 residual activity) was 107%. It also gave a remaining activity at 1 µM ([3]; 1 µM 2015, read-out: ABL2 residual activity) of 102%, a remaining activity at 0.2 µM ([3]; ABL2, 0.2 µM, read-out: residual activity) of 107% and a remaining activity at 1 µM ([3]; ABL2, 1 µM, read-out: residual activity) of 102%. For the same compound, the remaining activity at 0.2 µM ([4]; 0.2 µM 2015, read-out: MAP4K2 residual activity) was 109%, the remaining activity at 1 µM ([4]; 1 µM 2015, read-out: MAP4K2 residual activity) was 104% and the remaining activity at 0.2 µM ([4]; MAP4K2, 0.2 µM, read-out: residual activity) was 109%. The remaining activity at 1 µM ([4]; MAP4K2, 1 µM, read-out: residual activity) was 104%, the remaining activity at 0.2 µM ([5]; 0.2 µM 2015, read-out: MELK residual activity) was 94.5% and the remaining activity at 1 µM ([5]; 1 µM 2015, read-out: MELK residual activity) was 91%. It also gave a remaining activity at 0.2 µM ([5]; MELK, 0.2 µM, read-out: residual activity) of 94.5%, a remaining activity at 1 µM ([5]; MELK, 1 µM, read-out: residual activity) of 91% and a remaining activity at 0.2 µM ([6]; 0.2 µM 2015, read-out: CDK20/CycH residual activity) of 107%. For the same compound, the remaining activity at 0.2 µM ([6]; 0.2 µM 2015, read-out: CDK20/CycT1 residual activity) was 103%, the remaining activity at 1 µM ([6]; 1 µM 2015, read-out: CDK20/CycH residual activity) was 97.2% and the remaining activity at 1 µM ([6]; 1 µM 2015, read-out: CDK20/CycT1 residual activity) was 96.3%. It also gave a remaining activity at 0.2 µM ([6]; CDK20/CycH, 0.2 µM, read-out: residual activity) of 107%, a remaining activity at 1 µM ([6]; CDK20/CycH, 1 µM, read-out: residual activity) of 97.2% and a remaining activity at 0.2 µM ([6]; CDK20/CycT1, 0.2 µM, read-out: residual activity) of 103%. The remaining activity at 1 µM ([6]; CDK20/CycT1, 1 µM, read-out: residual activity) was 96.3%, the remaining activity at 0.2 µM ([7]; 0.2 µM 2015, read-out: SLK residual activity) was 75% and the remaining activity at 1 µM ([7]; 1 µM 2015, read-out: SLK residual activity) was 75.3%. The remaining activity at 0.2 µM ([7]; SLK, 0.2 µM, read-out: residual activity) was 75%, the remaining activity at 1 µM ([7]; SLK, 1 µM, read-out: residual activity) was 75.3% and the remaining activity at 0.2 µM ([8]; 0.2 µM 2015, read-out: TAOK3 residual activity) was 101%. It also gave a remaining activity at 1 µM ([8]; 1 µM 2015, read-out: TAOK3 residual activity) of 98.6%, a remaining activity at 0.2 µM ([8]; TAOK3, 0.2 µM, read-out: residual activity) of 101% and a remaining activity at 1 µM ([8]; TAOK3, 1 µM, read-out: residual activity) of 98.6%. For the same compound, the remaining activity at 0.2 µM ([9]; 0.2 µM 2015, read-out: S6Kbeta residual activity) was 108%, the remaining activity at 1 µM ([9]; 1 µM 2015, read-out: S6Kbeta residual activity) was 109% and the remaining activity at 0.2 µM ([9]; S6Kbeta, 0.2 µM, read-out: residual activity) was 108%. For the same compound, the remaining activity at 1 µM ([9]; S6Kbeta, 1 µM, read-out: residual activity) was 109%, the remaining activity at 0.2 µM ([10]; 0.2 µM 2015, read-out: WNK2 residual activity) was 107% and the remaining activity at 1 µM ([10]; 1 µM 2015, read-out: WNK2 residual activity) was 111%. It also gave a remaining activity at 0.2 µM ([10]; WNK2, 0.2 µM, read-out: residual activity) of 107% and a remaining activity at 1 µM ([10]; WNK2, 1 µM, read-out: residual activity) of 111%.
